By IC50 is commonly meant the concentration needed to halve the response being measured. As usually defined, the Papp A→B is the apparent permeability from the apical to the basolateral side of a cell layer. The kinetic solubility is the concentration staying in solution when a stock, usually in DMSO, is diluted into the medium.

Data on 34 molecules can be found in ChEMBL document CHEMBL3580578, “Optimization of 5-(2,6-dichlorophenyl)-3-hydroxy-2-mercaptocyclohex-2-enones as potent inhibitors of human lactate dehydrogenase” (Bioorg Med Chem Lett, 2014).

The structures appear in SMILES notation. ≈ marks a conversion by molar mass, not a printed value.

The nature of data set [1]: Stability in mouse plasma assessed as parent compound remaining at 37 degC after 1 hr. The class given is ADME, cell-free. The following applies: read-out: Stability.
The target in data set [2] is T1, Malate dehydrogenase, mitochondrial (Homo sapiens, UniProt P40926).
T1 sequence (P40926 whole entry): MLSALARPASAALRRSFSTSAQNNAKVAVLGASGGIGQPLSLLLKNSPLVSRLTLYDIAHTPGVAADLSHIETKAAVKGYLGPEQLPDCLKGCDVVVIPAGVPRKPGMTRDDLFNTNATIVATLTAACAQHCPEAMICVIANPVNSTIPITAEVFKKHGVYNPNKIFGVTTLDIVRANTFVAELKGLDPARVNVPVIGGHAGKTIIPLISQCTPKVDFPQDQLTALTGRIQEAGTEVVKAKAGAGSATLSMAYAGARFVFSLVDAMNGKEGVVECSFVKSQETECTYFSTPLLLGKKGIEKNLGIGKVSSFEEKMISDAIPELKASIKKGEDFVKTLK
The data set can be described thus: Inhibition of malate dehydrogenase 2 (unknown origin).

The nature of data set [3]: Apparent permeability from apical to basolateral side in MDCK cells. The class given is ADME, cell-based, Canis lupus familiaris. The following applies: dog.
The nature of data set [4]: Kinetic solubility of the compound in PBS buffer at pH 7.4.
Data set [5] has as its target L-lactate dehydrogenase A chain (Homo sapiens, UniProt P00338). Put plainly: Inhibition of human LDH-A by biochemical assay.
Data set [6] concerns the target T2, Malate dehydrogenase, cytoplasmic (Homo sapiens, UniProt P40925).
T2 sequence (P40925 whole entry): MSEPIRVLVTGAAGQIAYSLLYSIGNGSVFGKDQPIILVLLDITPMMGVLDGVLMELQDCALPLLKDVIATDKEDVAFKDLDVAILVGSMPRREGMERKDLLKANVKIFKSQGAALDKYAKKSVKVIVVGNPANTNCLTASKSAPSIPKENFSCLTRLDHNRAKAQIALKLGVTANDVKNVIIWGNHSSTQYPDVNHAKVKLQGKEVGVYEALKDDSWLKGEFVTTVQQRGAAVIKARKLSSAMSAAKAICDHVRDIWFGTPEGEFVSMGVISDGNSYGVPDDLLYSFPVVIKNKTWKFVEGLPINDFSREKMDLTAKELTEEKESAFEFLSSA
The data set can be described thus: Inhibition of malate dehydrogenase 1 (unknown origin).

Data set [7] in a line: Plasma protein binding in human. In kind it is ADME, cell-free. The following applies: read-out: PPB.
Data set [8] has as its target L-lactate dehydrogenase B chain (Homo sapiens, UniProt P07195).
Description: Inhibition of LDH-B (unknown origin)

L-lactate dehydrogenase B chain, sequence (P07195 whole entry): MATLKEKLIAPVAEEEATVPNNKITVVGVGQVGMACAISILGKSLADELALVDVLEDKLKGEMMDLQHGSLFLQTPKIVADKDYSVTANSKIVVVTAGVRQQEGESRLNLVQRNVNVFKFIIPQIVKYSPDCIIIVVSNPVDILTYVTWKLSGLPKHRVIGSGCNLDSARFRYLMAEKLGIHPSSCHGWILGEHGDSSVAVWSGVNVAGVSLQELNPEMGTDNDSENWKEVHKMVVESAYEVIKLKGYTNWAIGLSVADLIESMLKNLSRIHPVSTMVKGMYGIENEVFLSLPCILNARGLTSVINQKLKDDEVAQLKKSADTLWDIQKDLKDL

Regarding `C[C@@H](OC(=O)Cc1ccc(Cl)c(SC2=C(O)CC(c3c(Cl)cccc3Cl)CC2=O)c1)c1ccccc1` (some centres not stated), in data set [1], the remaining at 1 h was determined as 72%. Also, the IC50 in data set [2] is at least 10 µM; in data set [5] it was 0.006 µM; in data set [6], at least 10 µM. Moreover, in data set [3], the Papp A→B worked out at 10.6 ×10⁻⁶ cm/s. In data set [4], the kinetic solubility came out at 61 µM (≈ 34.3 µg/mL).

For `O=C(Cc1ccc(Cl)c(SC2=C(O)CC(c3c(Cl)cccc3Cl)CC2=O)c1)NCCO` (configuration not stated), the IC50 in data set [2] is at least 10 µM; in data set [5], 0.3 µM; in data set [6] it was at least 10 µM.

Take `O=C1CC(c2c(Cl)ccc(N3CCN(C4CC4)CC3)c2Cl)CC(O)=C1Sc1ccccc1Cl` (configuration not stated): the half-maximal inhibitory concentration (IC50) in data set [2] was at least 10 µM; in data set [5] it was 0.23 µM; in data set [6], at least 10 µM.

Regarding `CCOC(=O)Cc1ccc(Cl)c(SC2=C(O)CC(c3c(Cl)ccc(-c4ccccc4)c3Cl)CC2=O)c1` (configuration not stated), the results for the IC50 in data set [2], in data set [5] and in data set [6] were at least 10 µM, 0.03 µM and at least 10 µM, respectively.

With `O=C(O)Cc1ccc(Cl)c(SC2=C(O)CC(c3c(Cl)cccc3Cl)CC2=O)c1` (configuration not stated), the IC50 is at least 10 µM in data set [2], 3.5 µM in data set [5] and at least 10 µM in data set [6].

Turning to `CC(=O)N1CCN(c2ccc(Cl)c(C3CC(=O)C(Sc4ccccc4Cl)=C(O)C3)c2Cl)CC1` (configuration not stated), the IC50 in data set [2] is at least 10 µM; in data set [5], 0.1 µM; in data set [6] it was at least 10 µM.

Regarding `COc1ccc(Cl)c(SC2=C(O)CC(c3c(Cl)ccc(-c4ccncc4)c3Cl)CC2=O)c1` (configuration not stated), the IC50 is at least 10 µM in data set [2], 0.035 µM in data set [5] and at least 10 µM in data set [6].

As to `CCOC(=O)Cc1ccc(Cl)c(SC2=C(O)CC(c3c(Cl)cccc3Cl)CC2=O)c1` (configuration not stated), the values for the IC50 in data set [2], in data set [5] and in data set [6] were at least 10 µM, 0.13 µM and at least 10 µM, respectively.

As for `CC(C)Oc1ccc(Cl)c(C2CC(=O)C(Sc3cc(O)ccc3Cl)=C(O)C2)c1Cl` (configuration not stated), the IC50 in data set [2] is at least 10 µM; in data set [5] it was 0.03 µM; in data set [6], at least 10 µM.

As to `COc1ccc(Cl)c(SC2=C(O)CC(c3c(Cl)cccc3Cl)CC2=O)c1` (configuration not stated), the IC50 in data set [2] was at least 10 µM; in data set [5], 0.37 µM; in data set [6], at least 10 µM.

On to `O=C1CC(c2c(Cl)ccc(-c3ccccc3)c2Cl)CC(O)=C1Sc1ccccc1Cl` (configuration not stated), for which the IC50 in data set [2] was at least 10 µM; in data set [5] it was 0.1 µM; in data set [6] it was at least 10 µM.

For `CNc1ccc(Cl)c(SC2=C(O)CC(c3c(Cl)cccc3Cl)CC2=O)c1` (configuration not stated), the IC50 is at least 10 µM in data set [2], 0.17 µM in data set [5] and at least 10 µM in data set [6].

On to `CC(C)Oc1ccc(Cl)c(C2CC(=O)C(Sc3cc(O)ccc3C#N)=C(O)C2)c1Cl` (configuration not stated), for which the fraction unbound in data set [7] was under 0.001. Further, the 50% inhibitory concentration (IC50) in data set [2] is at least 10 µM; in data set [5] it was 0.015 µM; in data set [6], at least 10 µM; in data set [8], 0.14 µM. The Papp A→B in data set [3] amounted to 1.1 ×10⁻⁶ cm/s. The molecule further displayed a kinetic solubility in data set [4] of 50 µM (≈ 23.2 µg/mL).

For the molecule `CN(C)C(=O)Cc1ccc(Cl)c(SC2=C(O)CC(c3c(Cl)cccc3Cl)CC2=O)c1` (configuration not stated), the IC50 in data set [2] is at least 10 µM; in data set [5], 10 µM; in data set [6], at least 10 µM.

For `COc1ccc(Cl)c(SC2=C(O)CC(c3c(Cl)ccc(OC(C)C)c3Cl)CC2=O)c1` (configuration not stated), the IC50 in data set [2] was at least 10 µM; in data set [5], 0.025 µM; in data set [6] it was at least 10 µM.

For `O=C1CC(c2c(Cl)ccc(-c3ccncc3)c2Cl)CC(O)=C1Sc1ccccc1Cl` (configuration not stated), the 50% inhibitory concentration (IC50) in data set [2] is at least 10 µM; in data set [5], 0.085 µM; in data set [6], at least 10 µM.

On to `O=C1CC(c2c(Cl)ccc(-c3cccnc3)c2Cl)CC(O)=C1Sc1ccccc1Cl` (configuration not stated), for which the IC50 is at least 10 µM in data set [2], 0.108 µM in data set [5] and at least 10 µM in data set [6].

As to `COc1ccc(C#N)c(SC2=C(O)CC(c3c(Cl)ccc(OC(C)C)c3Cl)CC2=O)c1` (configuration not stated), the IC50 in data set [2] was at least 10 µM; in data set [5] it was 0.46 µM; in data set [6], at least 10 µM; in data set [8], 2.4 µM.

Regarding `CNC(=O)Cc1ccc(Cl)c(SC2=C(O)CC(c3c(Cl)cccc3Cl)CC2=O)c1` (configuration not stated), the values for the IC50 in data set [2], in data set [5] and in data set [6] were at least 10 µM, 1.8 µM and at least 10 µM, respectively.

As to `CC(C)Oc1ccc(Cl)c(C2CC(=O)C(Sc3ccccc3Cl)=C(O)C2)c1Cl` (configuration not stated), the IC50 in data set [2] was at least 10 µM; in data set [5] it was 0.09 µM; in data set [6], at least 10 µM.

`O=C1CC(c2c(Cl)ccc(N3CCOCC3)c2Cl)CC(O)=C1Sc1ccccc1Cl` (configuration not stated): the IC50 in data set [2] is at least 10 µM; in data set [5] it was 0.24 µM; in data set [6], at least 10 µM.

For `C[C@H](OC(=O)Cc1ccc(Cl)c(SC2=C(O)CC(c3c(Cl)cccc3Cl)CC2=O)c1)c1ccccc1` (some centres not stated), the half-inhibitory concentration (IC50) is at least 10 µM in data set [2], 0.09 µM in data set [5] and at least 10 µM in data set [6].

As to `O=C1CC(c2c(Cl)ccc(N3CCN(C4COC4)CC3)c2Cl)CC(O)=C1Sc1ccccc1Cl` (configuration not stated), the half-inhibitory concentration (IC50) in data set [2] is at least 10 µM; in data set [5], 0.37 µM; in data set [6], at least 10 µM.

For `O=C1CC(c2c(Cl)ccc(N3CCNCC3)c2Cl)CC(O)=C1Sc1ccccc1Cl` (configuration not stated), the concentration for half-maximal inhibition (IC50) in data set [2] is at least 10 µM; in data set [5] it was 0.17 µM; in data set [6] it was at least 10 µM.

On to `O=C1CC(c2c(Cl)cccc2Cl)CC(O)=C1Sc1ccccc1Cl` (configuration not stated), for which the IC50 in data set [2] and in data set [6] was at least 10 µM throughout.

Turning to `O=C1CC(c2c(Cl)ccc(-c3ccccc3Cl)c2Cl)CC(O)=C1Sc1ccccc1Cl` (configuration not stated), the IC50 is at least 10 µM in data set [2], 0.06 µM in data set [5] and at least 10 µM in data set [6].

Take `O=C1CC(c2c(Cl)ccc(NC3CCOCC3)c2Cl)CC(O)=C1Sc1ccccc1Cl` (configuration not stated): the IC50 in data set [2] was at least 10 µM; in data set [5] it was 0.06 µM; in data set [6], at least 10 µM.

In the case of `COC(=O)Cc1ccc(Cl)c(SC2=C(O)CC(c3c(Cl)cccc3Cl)CC2=O)c1` (configuration not stated), the results for the IC50 in data set [2], in data set [5] and in data set [6] were at least 10 µM, 0.04 µM and at least 10 µM, respectively.

With `COc1ccc(Cl)c(SC2=C(O)CC(c3c(Cl)ccc(NC4CCOCC4)c3Cl)CC2=O)c1` (configuration not stated), the fraction unbound in data set [7] is under 0.001. Besides, the IC50 in data set [2] is at least 10 µM; in data set [5], 0.03 µM; in data set [6], at least 10 µM. The Papp A→B in data set [3] came to 14 ×10⁻⁶ cm/s. The molecule further had a solubility (kinetic) in data set [4] of 49 µM (≈ 25.9 µg/mL).

For `CC(C)OC(=O)Cc1ccc(Cl)c(SC2=C(O)CC(c3c(Cl)cccc3Cl)CC2=O)c1` (configuration not stated), the IC50 in data set [2] was at least 10 µM; in data set [5] it was 0.12 µM; in data set [6], at least 10 µM.

Take `O=C1CC(c2c(Cl)cc(N3CCOCC3)cc2Cl)CC(O)=C1Sc1ccccc1Cl` (configuration not stated): the IC50 in data set [2] was at least 10 µM; in data set [5], 2.6 µM; in data set [6], at least 10 µM.

Consider `O=C1CC(c2c(Cl)ccc(-c3cncnc3)c2Cl)CC(O)=C1Sc1ccccc1Cl` (configuration not stated), for which the IC50 is at least 10 µM in data set [2], 1.1 µM in data set [5] and at least 10 µM in data set [6].

On to `Nc1ccc(Cl)c(SC2=C(O)CC(c3c(Cl)cccc3Cl)CC2=O)c1` (configuration not stated), for which the IC50 in data set [2] is at least 10 µM; in data set [5] it was 0.64 µM; in data set [6], at least 10 µM.

Take `O=C1CC(c2c(Cl)cccc2Cl)CC(O)=C1Sc1cc(O)ccc1Cl` (configuration not stated): the 50% inhibitory concentration (IC50) in data set [2] is at least 10 µM; in data set [5], 0.12 µM; in data set [6], at least 10 µM.
